Results reported in US20210188905A1, “COMBINING BETA-DIPEPTIDES AND AMINO ACIDS FOR OPTIMAL NUTRITIONAL SUPPLEMENTATION” (Cysal GmbH, priority 2018, published 2021).

What was measured:
[1] = Oral supplementation of healthy volunteers, levels in whole blood by UPLC-MSMS; type: in vivo, human
Experimental: β-Aspartyl-arginine was administered orally either alone or in combination with arginine, and in varying doses. Levels of dipeptide in blood are then monitored over time. The substance used for the experiments is a white powder of β-aspartyl-arginine. The purity is >99% and was determined by HPLC-analysis.
Experimental procedure: The volunteers were three healthy males (age 41 to 51 years, 173-187 cm height, 80-85 kg weight, BMI around 25 kg/m^2). […] The volunteers fasted throughout the experiment. Blood was collected from the fingertip using a lancet device and blotted onto sample cards and levels of dipeptide and amino acids were determined by UPLC-MSMS by an external service provider (Labor Blessing, Singen Germany).

[2] = oral consumption, human use data; cited from earlier work
Arginase (Bovine) = biological target: T1, Arginase (Bovine) (Bos taurus, UniProt Q2KJ64); experiment: Hydrolase susceptibility: arginase reaction, HPLC; type: in vitro ADME; details: 500 μg per ml, 100 U arginase, 37° C., pH 9.5, FIG. 5/6
T1 construct: purchased Alexis Bio/Sigma ALX-201-081-C020
T1 sequence (Q2KJ64 1-322): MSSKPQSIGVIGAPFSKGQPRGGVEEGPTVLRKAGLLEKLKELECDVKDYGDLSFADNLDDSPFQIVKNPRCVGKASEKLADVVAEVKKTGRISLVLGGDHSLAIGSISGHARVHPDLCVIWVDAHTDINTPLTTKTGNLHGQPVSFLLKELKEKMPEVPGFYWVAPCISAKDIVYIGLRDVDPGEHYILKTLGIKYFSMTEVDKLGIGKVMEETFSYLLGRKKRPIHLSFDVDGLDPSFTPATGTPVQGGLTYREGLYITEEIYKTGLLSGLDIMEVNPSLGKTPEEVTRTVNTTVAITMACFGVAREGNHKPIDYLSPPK
Text: The release of free amino acids or modified dipeptide after treatment with these enzymes is monitored by HPLC.

[3] = biological target: T2, Clostripain (Cl. histolyticum) (Hathewaya histolytica, UniProt P09870); experiment: Hydrolase susceptibility: clostripain, HPLC; type: in vitro ADME; details: 500 μg dipeptide per ml, 10 U, 25° C., pH 7.4, 24 h, FIG. 7
T2 construct: purchased Sigma C0888-250UN
Experimental: (§1) Arginase catalyzes the final step of the urea cycle and converts L-arginine into L-ornithine und urea. The other tested enzymes (proteases) are able to cleave α-peptide bonds involving aspartate and/or arginine. The release of free amino acids or modified dipeptide after treatment with these enzymes is monitored by HPLC. The substance used for the experiments is a white powder of β-L-aspartyl-L-arginine. The purity is >99% and was determined by HPLC-analysis.

[4] = biological target: T3, Chymotrypsin (Bovine pancreas) (Bos taurus, UniProt P00766); experiment: Hydrolase susceptibility: chymotrypsin, HPLC; type: in vitro ADME; details: 500 μg dipeptide per ml, 150 U, 30° C., pH 7.8, 24 h, FIG. 7
T3 construct: purchased Applichem A4531; host or cells: bovine pancreas
Experimental: as §1

[5] = biological target: T4, Trypsin (Bovine pancreas) (Bos taurus, UniProt P00760); experiment: Hydrolase susceptibility: trypsin, HPLC; type: in vitro ADME; details: 500 μg dipeptide per ml, 187.5 U, 25° C., pH 7.6, 24 h, FIG. 7
T4 construct: purchased Sigma T1426-50MG; host or cells: bovine pancreas
T4 sequence (P00760 24-246): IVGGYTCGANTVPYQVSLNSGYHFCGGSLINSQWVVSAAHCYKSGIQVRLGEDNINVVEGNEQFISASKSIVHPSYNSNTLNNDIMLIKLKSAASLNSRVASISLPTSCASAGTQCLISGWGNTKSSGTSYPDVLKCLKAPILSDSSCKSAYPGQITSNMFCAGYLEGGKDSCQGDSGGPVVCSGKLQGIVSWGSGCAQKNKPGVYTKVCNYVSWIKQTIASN
Experimental: as §1

[6] = system: Endoproteinase ArgC (mouse); experiment: Hydrolase susceptibility: endoproteinase Arg-C, HPLC; type: in vitro ADME; details: 500 μg dipeptide per ml, 37° C., pH 8.5, 24 h, FIG. 7
Experimental: as §1

[7] = system: Proteinase N (Bacillus subtilis); experiment: Hydrolase susceptibility: proteinase N, HPLC; type: in vitro ADME; details: 500 μg dipeptide per ml, 28.4 U, 37° C., pH 1-3, 24 h, FIG. 7
Experimental: as §1

[8] = system: bovine liver extract (β-aspartyl peptidases); experiment: Cleavage of β-aspartyl dipeptide by bovine liver extract, HPLC; type: in vitro ADME; details: 10 mM dipeptide, 37° C.
Text: β-aspartyl dipeptides contain an isoaspartyl peptide bond instead of the α bond common in proteins. It is therefore resistant to cleavage by most common proteases and peptidases. While this resistance is an advantage in the gut and in the bloodstream as it prevents cleavage before reaching the target tissue, it does raise the question as to how the dipeptide is introduced into the metabolism. Specific cytoplasmic isoaspartases (also known as β-aspartyl peptidases) have been found in mammalian tissues that are capable of cleaving a large variety of β-aspartyl dipeptides and related compounds. Specificity is towards the β-aspartyl moiety, with the identity of the moiety bound to this residue being of little importance. The overall reaction can be summarized as:
The substance used for the experiments is a white powder of β-L-aspartyl-L-arginine. The purity is >99% and was determined by HPLC-analysis.
Bovine liver purchased from a butcher was chosen as a model due to ready availability. Liver (50 g fresh weight) was homogenized using a Waring blender in four times its volume of ice-cold phosphate-buffered saline. Insoluble material was removed by centrifugation for 15 min at 9,000×g at 4° C. The supernatant (liver extract) was used immediately as a test solution.
Test setup: An aliquot of 900 μl of liver extract in a 1.5-ml polypropylene tube was placed into a heat block at 37° C. and allowed to heat up for 10 min. Then, a volume of 100 μl of a solution of 100 mM β-aspartyl-arginine phosphate-buffered saline was added to a give a final concentration of 10 mM. Samples of 100 μl were taken at 0, 1, 2, 3, and 4 h after addition of the dipeptide. Immediately after each sample was taken, it was added to a 1.5-ml screw-cap polypropylene tube containing 100 μl of 10% SDS in water and 700 μl of demineralized water. This tube was immediately heated to 100° C. for 10 min to stop any further enzyme activity. The tube was then cooled to room temperature and 100 μl of 10% KCl solution were added. […] The samples were then diluted appropriately with demineralized water and analyzed by HPLC.

rat liver extract = details: β-aspartyl-glycine as a substrate, Dorer et al.; cited from earlier work
[9] = equimolar oral doses of free arginine (as arginine aspartate salt), FIG. 3

T2 sequence (P09870 191-526): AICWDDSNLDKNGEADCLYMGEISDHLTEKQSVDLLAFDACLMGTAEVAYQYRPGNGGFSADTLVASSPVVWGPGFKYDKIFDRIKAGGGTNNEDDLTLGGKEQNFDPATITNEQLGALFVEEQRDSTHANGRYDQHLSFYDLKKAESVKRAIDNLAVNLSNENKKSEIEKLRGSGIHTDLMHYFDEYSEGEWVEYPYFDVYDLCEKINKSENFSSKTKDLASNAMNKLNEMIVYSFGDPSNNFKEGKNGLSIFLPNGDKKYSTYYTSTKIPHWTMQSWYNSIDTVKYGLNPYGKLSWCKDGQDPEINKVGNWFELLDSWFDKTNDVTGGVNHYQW
T2 sequence (P09870 51-181): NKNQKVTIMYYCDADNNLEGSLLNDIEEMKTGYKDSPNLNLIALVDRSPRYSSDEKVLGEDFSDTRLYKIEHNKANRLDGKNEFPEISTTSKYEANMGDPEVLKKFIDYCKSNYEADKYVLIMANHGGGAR

N=C(N)NCCC[C@H](N)C(=O)O [arginine, reference compound]
time for blood concentrations to return to baseline [1, 9]: ≤ 4 h
time of fast increase in blood concentration [1, 9]: two
effect of the 5-g dose on blood concentrations versus 2.5 g ([1]; oral free arginine (as arginine aspartate salt), FIG. 3): did not lead to substantially increased blood concentrations
oral amount beyond which arginine levels in blood do not increase [2]: 2.5 g

N=C(N)NCCC[C@H](NC(=O)C[C@H](N)C(=O)O)C(=O)O [β-aspartyl-arginine, β-L-aspartyl-L-arginine]
form in which the orally administered substance is taken up into the bloodstream ([1]; oral): uncleaved dipeptide form
period over which the concentration of the dipeptide in whole blood increased ([1]; oral 2.5 g or 5 g dipeptide in 400 ml water, fasted, three volunteers, FIG. 1): about six
time for which the dipeptide was still detectable in whole blood ([1]; oral 2.5 g or 5 g dipeptide, FIG. 1): 12 h
free arginine in blood after administration of the dipeptide ([1]; oral dipeptide alone): only detected at baseline levels
effect of doubling the oral dose on maximum concentration in whole blood ([1]; oral dose from 2.5 g to 5 g): approximately doubled
hydrolysis by arginase (Arginase (Bovine)): no significant difference to the start concentration
change of dipeptide concentration after clostripain treatment [3]: No significant difference
change of dipeptide concentration after chymotrypsin treatment [4]: No significant difference
change of dipeptide concentration after trypsin treatment [5]: No significant difference
change of dipeptide concentration after endoproteinase Arg-C treatment [6]: No significant difference
change of dipeptide concentration after proteinase N treatment [7]: No significant difference
cleavage by enzymes present in bovine liver ([8]; 0-4 h): is cleaved
hydrolysis activity of liver extract per protein ([8]; bovine liver extract): 0.065 U/mg protein
hydrolysis activity of liver extract ([8]; smaller timescale experiment, FIG. 8): 2.5 mg of dipeptide being hydrolyzed per gram of liver tissue per hour

N[C@@H](CC(=O)NCC(=O)O)C(=O)O [β-aspartyl-glycine]
hydrolysis activity of rat liver extract (rat liver extract): 0.028 U/mg
